Experiments:
AR121Q mice = test: Pilot preclinical trial in AR121Q (SBMA) mice; assay type: in vivo, mouse; settings: male SBMA mice; 50 mg/kg intraperitoneally three times per week, 3 to 8 weeks of age
Protocol: To determine the efficacy of TA and/or MEPB in a mouse model of SBMA, we first performed a pilot study. Five mice were assigned to each drug treatment group: 50 mg/kg TA, 50 mg/kg MEPB, or vehicle (1% DMSO in corn oil). Drug identities were coded to ensure investigator blinding, and drugs were administered three times per week (Monday, Wednesday, and Friday) by intraperitoneal injection from 3 to 8 weeks of age. At 8 weeks, all mice were sacrificed and tissues were collected for pathologic analysis. To fully characterize the efficacy of MEPB in SBMA mice, a large-scale, multi-dose preclinical trial was performed. A power analysis (Table 1) was performed based on the pilot study data to determine the adequate number of mice required for 80% power. At least 10 mice were assigned to each drug treatment group: 50 mg/kg MEPB, 100 mg/kg MEPB, and vehicle (1% DMSO in corn oil). Drug identities were coded to ensure investigator blinding, and drugs were administered three times per week (Monday, Wednesday, and Friday) by intraperitoneal injections from 4 weeks until 30 weeks of age.
Body weight, rotarod activity, and grip strength data were collected weekly. Footprint analysis and clasping phenotype were assessed at 7 and 8 weeks of age. Body weight was measured using a standard laboratory scale (Fisher Scientific). Rotarod activity analysis was performed on an accelerating rotarod apparatus (IITC Life Science) using a two-day, weekly protocol. Mice were trained on the first day with one session set at 4 rpm for 5 min. The following day, mice were placed on the apparatus, rotation speed was set to accelerate from 4-40 rpm at a rate of 0.1 rpm/s, and the latency to fall was recorded for four separate trials per mouse. Mice were given a 15-min rest period between each trial. Grip strength was measured using a grip strength meter (Bioseb). Grip strength was measured as grams of force in six repeated measurements for forepaws and hindpaws of each animal. To perform gait/footprint analysis, the forepaws and hindpaws of each animal were dipped in red and blue, respectively, water-soluble, non-toxic paint. The animal was then placed in a 70-cm long tunnel lined on the bottom with Whatman filter paper, the entrance was sealed, and the animal was allowed to walk through one time. Footprints were scanned and analyzed with Image J for stride length and forepaw/hindpaw overlap^41. To determine clasping phenotype, mice were recorded using an Apple iPod camera (iOS version 6.1.6) for approximately 60 seconds and still frames were extracted using ImageJ.
A separate cohort of five mice per treatment group was generated for pathologic and biochemical analysis. Mice were anesthetized by isoflurane inhalation and transcardially perfused with either PBS for frozen tissue samples or 10% formalin for fixed tissue samples. Selected tissues (brain, spinal cord, gastrocnemius/soleus muscle, testes, and liver) were dissected and either snap-frozen in liquid nitrogen or processed for paraffin embedding/sectioning. Tissue sections were stained with hematoxylin and eosin, toluidine blue, or Gomori trichrome to ascertain overall morphology and pathologic changes. To determine AR staining and colocalization patterns, tissue sections were stained with anti-AR (N20, Santa Cruz), anti-polyQ (5TF1-1C2, EMD Millipore), or anti-ubiquitin (Cell Signaling Technology) antibodies. To quantify type I and type II myofibers, hindlimb tissue sections were stained with myosin heavy chain-slow twitch and myosin heavy chain-fast twitch antibodies (Leica Biosystems), respectively. For the purposes of counting ChAT-positive neurons, three stepped sections separated by 50 μm were analyzed for the cervical, thoracic, and lumbosacral areas of spinal cords. The slides contained three to six tissue sections at each level and were labeled with an anti-ChAT antibody (EMD Millipore). […]

[1] = test system: flies expressing human AR52Q in pan-neuronal tissues (ELAV>UAS-AR52Q); test: Viability of SBMA flies (rescue of DHT-induced lethality); assay type: in vivo, Drosophila; settings: flies reared on food containing 1 mM DHT and compound (TA, MEPB 0 to 400 μM)
Source text: UAS-AR52Q, UAS-AR52Q-K720A, and UAS-AR66Q-E897K fly stocks were generated as previously described^8. Fly stocks were crossed to various GAL4 driver lines (ELAV-GAL4 for pan-neuronal, OK371-GAL4 for motor neuron, GMR-GAL4 for eye) to induce expression of the AR transgene in a tissue-specific manner in fly vials containing fly food with either vehicle (1% ethanol +/−0.1% DMSO) or drugs. Upon the presence of progeny, parental flies were removed, and F1 flies were scored for phenotypic analysis. Viability was determined as previously described^40. Briefly, the population frequency of adult F1 SBMA flies (ELAV>UAS-AR52Q or OK371>UAS-AR52Q) and control flies (GAL4-ELAV; CyO-GFP) were determined by the presence or absence of the CyO phenotypic marker. At least three independent biological replicates (F0 crosses) were performed with new drug/food preparations for each treatment group, and a total of at least 50 flies were scored for each treatment group. To determine locomotor activity of SBMA flies, adult F1 flies (OK371>UAS-AR52Q) reared on food containing vehicle or drug were allowed to walk for 90 seconds in one well of a 12-well tissue culture plate while video was recorded using a Leica M205C stereomicroscope and Leica DFC320 digital camera. Videos were recorded for at least 15 flies per treatment group. Tracing of fly movement and analysis of displacement and velocity were performed using ImageJ software. Preparation and staining of larval neuromuscular junctions and ventral ganglions were performed as previously described^8.

| Structure (SMILES) | body weight (AR121Q mice) | gait and hindlimb clasping (AR121Q mice) | grip strength (AR121Q mice) | pathologic appearance of skeletal muscle and spinal cord degeneration (AR121Q mice) | rotarod activity (AR121Q mice) | survival (AR121Q mice) | SBMA fly viability [1] | any measurements of SBMA-associated degeneration (AR121Q mice) |
| --- | --- | --- | --- | --- | --- | --- | --- | --- |
| Cc1ccc(OCCn2c(SCCOc3ccccc3)nc3ccccc32)cc1 [MEPB, 1-[2-(4-methylphenoxy)ethyl]-2-[(2-phenoxyethyl)sulfanyl]-1H-benzimidazole] | significantly improved | improved gait and hindlimb clasping | significantly improved | qualitatively recovered | significantly improved | no significant change in survival | significantly increased SBMA fly viability in a dose-dependent manner |  |
| Cc1c(Cl)cccc1Nc1ccccc1C(=O)O [TA, tolfenamic acid] |  |  |  |  |  |  | significantly increased SBMA fly viability in a dose-dependent manner | did not significantly alter any measurements of SBMA-associated degeneration |

Reference: US11707449B2, “Methods and formulations for treatment of spinobulbar muscular atrophy” (ST. JUDE CHILDREN'S RESEARCH HOSPITAL, INC., priority 2017, dated 2023)
